Laboratory results: US10221163B2 (priority 2015, dated 2019)
Where two headings read alike, the source gives them in different places.

Columns and labels:
IMP-1 = IMP-1 (Serratia marcescens, UniProt P52699); assay: biochemical; type: biochemical; settings: fluorescence assay, CCF2-FA substrate, 2 pM enzyme, 2 hours at 25° C.; read-out: IMP-1 IC50
Procedure, shortened: (§1)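 Fluorescence assay, CCF2-FA substrate (cephalosporin core linking 7-hydroxycoumarin to fluorescein); inhibitor + MBL + substrate, 2 h, 25° C. IC50 by 4-parameter fit, semi-log plot.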

NDM-1 = NDM-1 (Klebsiella pneumoniae, UniProt C7C422); assay: biochemical; type: biochemical; settings: fluorescence assay, CCF2-FA substrate, 1 pM enzyme, 2 hours at 25° C.; read-out: NDM-1 IC50
Procedure, shortened: as §1

VIM-1 = VIM-1 (Pseudomonas aeruginosa (strain ATCC 15692 / DSM 22644 / CIP 104116 / JCM 14847 / LMG 12228 / 1C / PRS 101 / PAO1), UniProt A0A0F7KYQ8); assay: biochemical; settings: CCF2-FA substrate, 30 pM enzyme, 2 hours at 25° C.
Procedure, shortened: as §1

[1] = system: Escherichia coli expressing NDM-1 (CLB30005, CLB30016); type: cell-based; settings: with imipenem 1 μg/ml; for Escherichia coli MITC95: NDM-1 strain, 95% inhibition of growth; for Escherichia coli expressing NDM-1 (CLB30016) MITC95: 95% inhibition of bacterial growth
Procedure, shortened: (§2)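 Colonies grown overnight on blood agar at 35° C were suspended in saline, diluted 1:100 into 1.1×CAMHB and dispensed. Imipenem was added to 1 μg/ml, then test compound. After 22 hours to 24 hours at 35° C, absorbance was recorded.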

[2] = system: Klebsiella pneumoniae expressing VIM-1 (IHMA599644); type: cell-based; settings: for Klebsiella pneumoniae MITC95: VIM-1 strain IHMA599644, with imipenem 1 μg/ml, 95% inhibition of growth; for Klebsiella pneumoniae expressing VIM-1 (IHMA599644) MITC95: with imipenem 1 μg/ml, 95% inhibition of bacterial growth
Procedure, shortened: as §2

[3] = system: Serratia marcescens expressing IMP-1 (CL5741); type: cell-based; settings: for Serratia marcescens MITC95: IMP-1 strain CL5741, with imipenem 1 μg/ml, 95% inhibition of growth; for Serratia marcescens expressing IMP-1 (CL5741) MITC95: with imipenem 1 μg/ml, 95% inhibition of bacterial growth
Procedure, shortened: as §2

[4] = system: Pseudomonas aeruginosa efflux+ (MB9798), IMP-1; type: cell-based; set-up: Concentration of metallo-β-lactamase inhibitor which restores susceptibility of efflux + (MB9798) strain to imipenem: unit not given here; settings: C, D serine β-lactamase inhibitor closely related to relebactam; for Concentration of metallo-β-lactamase inhibitor which restores susceptibility of efflux + (MB9798) strain to imipenem: imipenem at 2 μg/mL, in the presence of a class A; for P. aeruginosa expressing IMP-1, efflux + (MB9798) MITC95: concentration restoring susceptibility to imipenem at 2 μg/mL in the presence of a class A
Procedure, shortened: (§3)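 Microbroth MIC tests in PAO1-background strains with fixed imipenem and/or ceftazidime, usually at the CLSI breakpoint, plus fixed class A/C β-lactamase inhibitor against AmpC. MBL inhibitor titrated; concentration restoring susceptibility recorded and compared as fold difference between efflux+ MB9798 and efflux− MB9799.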

[5] = system: Pseudomonas aeruginosa efflux− (MB9799), IMP-1; type: cell-based; settings: C, D serine β-lactamase inhibitor closely related to relebactam; for Concentration of metallo-β-lactamase inhibitor which restores susceptibility of efflux − (MB9799) strain to imipenem: imipenem at 2 μg/mL, in the presence of a class A; for P. aeruginosa expressing IMP-1, efflux − (MB9799) MITC95: concentration restoring susceptibility to imipenem at 2 μg/mL in the presence of a class A
Procedure, shortened: as §3

[6] = system: Pseudomonas aeruginosa MB9798 vs MB9799
Procedure, shortened: as §3

[7] = fluorescence assay, read-out: VIM-1 IC50
[8] = fold difference between efflux+ (MB9798) and efflux− (MB9799) strains, imipenem at 2 μg/mL
[9] = ratio MITC95 PA_9798/MITC95 PA_9799

Sequence of NDM-1 (C7C422 whole entry, looked up, species assumed): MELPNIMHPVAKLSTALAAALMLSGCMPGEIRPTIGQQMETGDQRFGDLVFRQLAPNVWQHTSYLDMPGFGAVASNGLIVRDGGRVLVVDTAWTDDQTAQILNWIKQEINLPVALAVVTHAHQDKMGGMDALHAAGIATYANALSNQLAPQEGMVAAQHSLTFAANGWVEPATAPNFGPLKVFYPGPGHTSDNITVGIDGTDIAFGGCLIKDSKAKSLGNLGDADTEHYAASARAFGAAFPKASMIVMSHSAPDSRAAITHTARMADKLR
Sequence of IMP-1 (P52699 whole entry, looked up, species assumed): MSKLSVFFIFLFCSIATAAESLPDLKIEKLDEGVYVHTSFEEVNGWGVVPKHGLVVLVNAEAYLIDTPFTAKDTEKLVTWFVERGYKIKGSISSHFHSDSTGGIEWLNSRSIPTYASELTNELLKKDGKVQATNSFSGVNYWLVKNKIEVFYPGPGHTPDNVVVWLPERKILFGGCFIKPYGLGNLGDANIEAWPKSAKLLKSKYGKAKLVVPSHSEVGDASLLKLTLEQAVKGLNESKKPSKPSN

| SMILES | IC50 (IMP-1) | IC50 (NDM-1) | IC50 (VIM-1; [7]) | Escherichia coli MITC95 [1] | Klebsiella pneumoniae MITC95 [2] | Serratia marcescens MITC95 [3] | Concentration of metallo-β-lactamase inhibitor which restores susceptibility of efflux + (MB9798) strain to imipenem [4] | Concentration of metallo-β-lactamase inhibitor which restores susceptibility of efflux − (MB9799) strain to imipenem [5] | Efflux ratio [6, 8] | IC50 (VIM-1; VIM-1 IC50, fluorescence assay) | P. aeruginosa expressing IMP-1, efflux + (MB9798) MITC95 [4] | P. aeruginosa expressing IMP-1, efflux − (MB9799) MITC95 [5] | Efflux ratio [6, 9] | Escherichia coli expressing NDM-1 (CLB30016) MITC95 [1] | Klebsiella pneumoniae expressing VIM-1 (IHMA599644) MITC95 [2] | Serratia marcescens expressing IMP-1 (CL5741) MITC95 [3] |
| --- | --- | --- | --- | --- | --- | --- | --- | --- | --- | --- | --- | --- | --- | --- | --- | --- |
| NC[C@@H](O)CNS(=O)(=O)c1ccc(-c2ccc3nccn3c2)c(-c2nn[nH]n2)c1S(N)(=O)=O [Example 420] | 0.974 nM | 0.23 nM | 0.125 nM | 0.3906 µM | 3.125 µM | 1.563 µM | 1.563 | 0.7813 | 2.00 |  |  |  |  |  |  |  |
| NCCNS(=O)(=O)c1ccc(-c2cccc(SC[C@@H](O)CN)c2)c(-c2nn[nH]n2)c1S(N)(=O)=O [Example 357, (S)-5′-(3-amino-2-hydroxypropylthio)-N4-(2-aminoethyl)-2-(2H-tetrazol-5-yl)biphenyl-3,4-disulfonamide] | 1.21 nM | 1.26 nM |  | 0.7813 µM | 0.7813 µM | 0.7813 µM |  |  |  | 0.224 nM | 0.7813 µM | 0.3906 µM | 2.00 |  |  |  |
| CN1CC2(CCN(S(=O)(=O)c3ccc(-c4cccc5sc(N)nc45)c(-c4nnn[nH]4)c3S(N)(=O)=O)C2)C1 [Example 38, 3-(2-amino-1,3-benzothiazol-4-yl)-6-[(2-methyl-2,6-diazaspiro[3.4]oct-6-yl)sulfonyl]-2-(1H-tetrazol-5-yl)benzenesulfonamide] | 1.43 nM | 0.424 nM |  |  |  |  |  |  |  | 2.52 nM | 3.125 µM | 3.125 µM | 1.00 | 12.5 µM | 12.5 µM | 3.125 µM |
| NCCCNS(=O)(=O)c1ccc(-c2cc(F)cc3[nH]c(N)nc23)c(-c2nn[nH]n2)c1S(N)(=O)=O [Example 402] | 0.318 nM | 0.0524 nM | 0.159 nM | 0.3906 µM | 1.563 µM | 0.7813 µM | 0.7813 | 0.7813 | 1.00 |  |  |  |  |  |  |  |
| Nc1nc2c(-c3ccc(S(=O)(=O)N4CC[C@@H](N)C4)c(S(N)(=O)=O)c3-c3nnn[nH]3)cccc2s1 [Example 62, 3-(2-amino-1,3-benzothiazol-4-yl)-6-{[(3R)-3-aminopyrrolidin-1-yl]sulfonyl}-2-(1H-tetrazol-5-yl)benzenesulfonamide] | 1.28 nM | 0.843 nM |  |  |  |  |  |  |  | 1.63 nM | 1.563 µM | 1.563 µM | 1.00 | 3.125 µM | 3.125 µM | 1.563 µM |
| Nc1nc2c(-c3ccc(S(=O)(=O)NC[C@H]4CCCN4)c(S(N)(=O)=O)c3-c3nn[nH]n3)cccc2[nH]1 [Example 261, (R)-4-(2-amino-1H-benzo[d]imidazol-4-yl)-N1-(pyrrolidin-2-ylmethyl)-3-(2H-tetrazol-5-yl)benzene-1,2-disulfonamide] | 0.648 nM | 0.0691 nM |  | 0.1953 µM | 0.7813 µM | 0.7813 µM |  |  |  | 0.224 nM | 0.7813 µM | 0.7813 µM | 1.00 |  |  |  |
| Nc1nc(-c2cccc(-c3ccc(S(=O)(=O)N[C@H]4CNC[C@H]4N)c(S(N)(=O)=O)c3-c3nn[nH]n3)c2)c[nH]1 [Example 327, 3′-(2-amino-1H-imidazol-4-yl)-N4-((3S,4R)-4-aminopyrrolidin-3-yl)-2-(2H-tetrazol-5-yl)-[1,1′-biphenyl]-3,4-disulfonamide] | 1.41 nM | 0.259 nM |  | 3.125 µM | 1.563 µM | 3.125 µM |  |  |  | 0.649 nM | 1.563 µM | 0.7813 µM | 2.00 |  |  |  |
| NC[C@@H](N)CNS(=O)(=O)c1ccc(-c2cccc3[nH]c(N)nc23)c(-c2nn[nH]n2)c1S(N)(=O)=O [Example 375, (R)-4-(2-amino-1H-benzo[d]imidazol-4-yl)-N1-(2,3-diaminopropyl)-3-(2H-tetrazol-5-yl)benzene-1,2-disulfonamide] | 0.6 nM | 0.0588 nM |  | 0.3906 µM | 1.563 µM | 1.563 µM |  |  |  | 0.233 nM | 1.563 µM | 1.563 µM | 1.00 |  |  |  |
| Nc1nc2c(-c3ccc(S(=O)(=O)NC4(CO)CCNC4)c(S(N)(=O)=O)c3-c3nnn[nH]3)cccc2s1 (stereo not drawn) [Example 84, 4-(2-amino-1,3-benzothiazol-4-yl)-N1-[3-(hydroxymethyl)pyrrolidin-3-yl]-3-(1H-tetrazol-5-yl)benzene-1,2-disulfonamide] | 0.403 nM | 0.0619 nM | 0.27 nM |  |  |  |  |  |  |  | 1.563 µM | 1.563 µM | 1.00 | 1.563 µM | 3.125 µM | 3.125 µM |
| NCCOCCNS(=O)(=O)c1ccc(-c2cccc3sc(N)nc23)c(-c2nnn[nH]2)c1S(N)(=O)=O [Example 203, 4-(2-aminobenzo[d]thiazol-4-yl)-N^1-(2-(2-aminoethoxy)ethyl)-3-(1H-tetrazol-5-yl)benzene-1,2-disulfonamide] | 0.199 nM | 0.05 nM | 0.185 nM |  |  |  |  |  |  |  | 0.7813 µM | 1.563 µM | 0.50 | 3.125 µM | 3.125 µM | 1.563 µM |
